Patent US20030064954A1, “Cationic amphiphilic 1,4-dihydropyridine derivatives useful for delivery of nucleotide containing compounds” (priority 2000, published 2003)

Assays:
[1] = Preparation of liposomes (vesicle solution); format: physicochemical
Procedure: Cationic liposomes comprising derivatives I-XXI were prepared by dissolving the crystalline derivative in chloroform. The solvent was evaporated under a stream of nitrogen for 45 min in vacuum. The resulting thin films were resuspended in 4 ml deionized water, vortexed and sonicated in bath type sonicator 30′ until the solution became clear. (The final concentration of liposomes was 2.5 mM.) In order to prepare the liposomes of derivatives I-XXI (Table 2) high temperatures (40-65° C.) were used. Derivatives XXII-XXVII (Table 2) were dissolved in deionized water, vortexed and sonicated 5-7 min in a bath sonicator.

CVI-P cells = experiment: Cytotoxicity of amphiphile/DNA complexes, percentage of survived cells
[2] = system: D407 (human retinal pigment epithelial) cells; experiment: In vitro transfection of plasmid DNA, β-galactosidase activity per well; format: cell-based; conditions: for transfection efficiency: D 407
plasmid DNA = experiment: DNA condensation/complexation, EtBr displacement assay; format: binding
In short: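 Plasmid DNA (0.6 μg/well) was mixed with 0.002% EtBr in 20 mM HEPES–150 mM NaCl pH 7.4, then cationic liposomes were added at various +/− charge ratios.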

D 407 cells = experiment: Cytotoxicity of amphiphile/DNA complexes, percentage of survived cells; format: cell-based, human; parameters: concentration or dose not given beside the values
carotid arteries = experiment: In vivo gene transfer to collared carotid arteries, X-gal staining; parameters: species or system New Zealand White rabbits; conditions: rabbit carotid artery
Procedure: For in vivo studies derivative/plasmid DNA complexes were prepared by the above mentioned method. After gentle swirling the mixtures were allowed to stand in room temperatures for 30 min. prior to use. The complexes were made in phosphate buffer saline and those having +/−charge ratios of 2-8 were used.
Five New Zealand White male rabbits of 2.5-3.5 kg were used. Fentanyl-fluanisone (0,3 mL/kg, s.c., Janssen Pharmaceutica, Beerse, Belgium) and midazolam (1.5 mg/kg, i.m., Roche, Basel, Switzerland) were used for anesthesia. Carotid arteries were exposed using midline neck incision. Arteries were carefully separated from the surrounding tissue and 3 cm silastic collar (MediGene Oy, Kuopio, Finland) was positioned around the artery. Rabbits were re-anesthetized for gene transfer, which was performed 5 days after the installation of the collars. The collars were opened and filled with 600 μL of the gene transfer solution. Rabbits were sacrificed three days after the gene transfer and arteries were removed for histological analyses.
Collared arteries were divided into three equal parts: the proximal third was immersion-fixed in 4% paraformaldehyde/15% sucrose (pH 7.4) for 4 h, rinsed in 15% sucrose (pH 7.4) overnight and embedded in paraffin. The medial third was stored at −70° C. for later analyses. The distal third was immersion-fixed in 4% paraformaldehyde/phosphate buffered saline (pH 7.4) for 30 min, rinsed 24 h in phosphate buffer (pH 7.2) and embedded in OCT compound.
Ten randomly selected frozen sections (10 μm) from each rabbit were stained with X-gal for 18 h to identify β-galactosidase positive cells. Mayers Carmalum-stain was, used as counter stain.

[3] = system: CV-1P (African monkey green kidney fibroblasts cells); experiment: In vitro transfection of plasmid DNA, β-galactosidase activity per well; format: cell-based; conditions: for transfection efficiency: CVI-P
In short: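 CV-1P cells (20 000/well) given compound/DNA complexes at various charge ratios, prepared in 50 mM MES–50 mM HEPES–75 mM NaCl pH 7.2, 0.6 μg DNA/well, for 5 h at 37 °C, then 45 h in growth medium. Lysates assayed for β-galactosidase via oNPG hydrolysis at 405 nm against an E. coli enzyme standard; efficiency expressed as percent of Lipofectin.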

[4] = amphiphile/DNA +/− charge ratio 0.5
[5] = amphiphile/DNA +/− charge ratio 1
[6] = amphiphile/DNA +/− charge ratio 2
[7] = amphiphile/DNA +/− charge ratio 4
[8] = amphiphile/DNA +/− charge ratio 8

3′,5′-Bis(cholesteryloxycarbonyl)-1′,4′-dihydro-1,2′,6′-trimethyl-3,4′-bipyridinium iodide [XII]
vesicle solution preparation, observation in words (phrases split over cells: 'Fast residue & crystalls'; 'No vesicle solution can be prepared') [1]: No

CCCCCCCCCCCCOC(=O)C1=C(C[n+]2ccccc2)NC(C[n+]2ccccc2)=C(C(=O)OCCCCCCCCCCCC)C1c1ccccc1.[Br-].[Br-] [XXIII, 1,1′-{[3,5-Bis(dodecyloxycarbonyl)-1,4-dihydro-4-phenylpyridine-2,6-diyl]dimethylene}bispyridinium dibromide]
cytotoxicity as a percentage of survived cells (CVI-P cells; [4]): 99,71% | cytotoxicity as a percentage of survived cells (CVI-P cells; [5]): 94,54% | cytotoxicity as a percentage of survived cells (CVI-P cells; [6]): 93,48% | cytotoxicity as a percentage of survived cells (CVI-P cells; [7]): 89,35% | cytotoxicity as a percentage of survived cells (CVI-P cells; [8]): 42,72% | transfection efficiency [2, 4]: 0,27 β-galactosidase units per well | transfection efficiency [2, 5]: 0,27 β-galactosidase units per well | transfection efficiency [2, 6]: 0,6 β-galactosidase units per well | transfection efficiency [2, 7]: 35,82 β-galactosidase units per well | transfection efficiency [2, 8]: 4,43 β-galactosidase units per well | level of transfection compared with Lipofectin ([2]; D407 cells, FIG. 4): at least twenty times higher | complexation, percentage of the maximum fluorescence signal when EtBr bound to DNA in the absence of an amphiphile (plasmid DNA; [4]): 78,22% | complexation, percentage of the maximum fluorescence signal when EtBr bound to DNA in the absence of an amphiphile (plasmid DNA; [5]): 59,03% | complexation, percentage of the maximum fluorescence signal when EtBr bound to DNA in the absence of an amphiphile (plasmid DNA; [6]): 48,3% | complexation, percentage of the maximum fluorescence signal when EtBr bound to DNA in the absence of an amphiphile (plasmid DNA; [7]): 44,14% | complexation, percentage of the maximum fluorescence signal when EtBr bound to DNA in the absence of an amphiphile (plasmid DNA; [8]): 42,48% | cytotoxicity as a percentage of survived cells (D 407 cells; [4]): 93,67% | cytotoxicity as a percentage of survived cells (D 407 cells; [5]): 87,69% | cytotoxicity as a percentage of survived cells (D 407 cells; [6]): 79,68% | cytotoxicity as a percentage of survived cells (D 407 cells; [7]): 70,23% | cytotoxicity as a percentage of survived cells (D 407 cells; [8]): 11,98% | β-galactosidase activity in arteries, result in words (carotid arteries; X-gal staining): detected at all study groups | gene transfer efficiency (carotid arteries; derivative/plasmid complexes at three charge ratios, three days after gene transfer): 0.05-1.5% | most effective charge ratio (carotid arteries; three charge ratios tested): +4 | level of transfection compared with DOTAP ([3]; CV1-P cells, FIG. 4): ten times higher | level of transfection compared with Lipofectin ([3]; CV1-P cells, FIG. 4): at least twenty times higher | transfection efficiency [3, 4]: 0,44 β-galactosidase units per well | transfection efficiency [3, 5]: 0,42 β-galactosidase units per well | transfection efficiency [3, 6]: 65,5 β-galactosidase units per well | transfection efficiency [3, 7]: 122,8 β-galactosidase units per well | transfection efficiency [3, 8]: 22,33 β-galactosidase units per well | highest level of beta-galactosidase expression ([3]; confluent CV1-P cells, without serum, without DOPE): 208 mU
